The test relates to L1210 leukemia ip in BDF1 mice, survival T/C. The experiment in a line: NCI In Vivo Anticancer Drug Screen. Data for tumor model L1210 Leukemia (intraperitoneal) in B6D2F1 (BDF1) mice. Particulars: endpoint: mean survival time, higher = longer survival. In a few lines: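 Tumor cells were implanted, animals were treated, and survival was followed. The result divides the treated measurement by the vehicle-control measurement.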

Where [1] appears, read: dose: 50.0 mg/kg/injection, schedule: Q01DX009 (ip), vehicle: saline with Tween-80.
Setting [2] is: dose: 100.0 mg/kg/injection, schedule: Q01DX009 (ip), vehicle: saline with Tween-80.
Where [3] appears, read: dose: 200.0 mg/kg/injection, schedule: Q01DX009 (ip), vehicle: saline with Tween-80.
Setting [4] is: dose: 200.0 mg/kg/injection, schedule: Q01DX009 (ip), vehicle: saline.
Where [5] appears, read: dose: 100.0 mg/kg/injection, schedule: Q04DX002 (ip), vehicle: Klucel (hydroxypropylcellulose) (HPC).
[6] abbreviates: dose: 200.0 mg/kg/injection, schedule: Q04DX002 (ip), vehicle: Klucel (hydroxypropylcellulose) (HPC).
The mark [7] stands for this setting: dose: 100.0 mg/kg/injection, schedule: Q01DX001 (ip), vehicle: other.
Where [8] appears, read: dose: 200.0 mg/kg/injection, schedule: Q01DX001 (ip), vehicle: other.
[9] abbreviates: dose: 400.0 mg/kg/injection, schedule: Q01DX001 (ip), vehicle: other.
Setting [10] is: dose: 100.0 mg/kg/injection, schedule: Q01DX009 (ip), vehicle: Klucel (hydroxypropylcellulose) (HPC).
[11] abbreviates: dose: 200.0 mg/kg/injection, schedule: Q01DX009 (ip), vehicle: Klucel (hydroxypropylcellulose) (HPC).
Where [12] appears, read: dose: 400.0 mg/kg/injection, schedule: Q01DX009 (ip), vehicle: Klucel (hydroxypropylcellulose) (HPC).

Where “and” joins values, the source holds several entries; their conditions need not be identical. Equal entries are not always repeated. Toxic doses and inconclusive results are not listed.

For `CCCCCCCCCCCCCCCCOc1ccc(C(=S)N2CCOCC2)cc1Cl`, the T/C reads like this: (dose: 100.0 mg/kg/injection, schedule: Q04DX003 (ip), vehicle: Klucel (hydroxypropylcellulose) (HPC)) 104 % of control; (dose: 200.0 mg/kg/injection, schedule: Q04DX003 (ip), vehicle: Klucel (hydroxypropylcellulose) (HPC)) 91 % of control; (dose: 400.0 mg/kg/injection, schedule: Q04DX003 (ip), vehicle: Klucel (hydroxypropylcellulose) (HPC)) 86 % of control.
`O=C1COC2CCCCC2O1` (stereo not drawn): the T/C by setting is: (dose: 100.0 mg/kg/injection, schedule: Q01DX001 (ip), vehicle: carboxymethylcellulose (CMC)) 108 % of control; (dose: 200.0 mg/kg/injection, schedule: Q01DX001 (ip), vehicle: carboxymethylcellulose (CMC)) 101 % of control; (dose: 400.0 mg/kg/injection, schedule: Q01DX001 (ip), vehicle: carboxymethylcellulose (CMC)) 106 % of control.
Consider `CCOC(=O)C(CNc1cccc2ccncc12)C(=O)OCC`, for which the T/C reads like this: under setting [1], 109 % of control; under setting [2], 94 % of control; under setting [3], 115 % of control.
As for `CCN(CC)CCCNC(C)=O`, the T/C reads like this: (dose: 100.0 mg/kg/injection, schedule: Q01DX009 (ip), vehicle: saline) 96 % of control; under setting [4], 98 % of control.
Turning to `CC(C)(c1cc(Cl)c(OCCO)c(Cl)c1)c1cc(Cl)c(OCCO)c(Cl)c1`, the T/C runs as follows: under setting [2], 103 % of control; under setting [3], 103 % of control; (dose: 400.0 mg/kg/injection, schedule: Q01DX009 (ip), vehicle: saline with Tween-80) 95 % of control.
Turning to `O=Cc1cc(=O)[nH]c(S)[n+]1-c1ccccc1`, the T/C reads like this: (dose: 50.0 mg/kg/injection, schedule: Q04DX002 (ip), vehicle: Klucel (hydroxypropylcellulose) (HPC)) 96 % of control; under setting [5], 96 % of control; under setting [6], 101 % of control.
For `CCc1cccc(OC/C=C(\C)CC/C=C(\C)CCC2OC2(C)C)c1` (stereo not drawn), the T/C is, setting by setting: (dose: 100.0 mg/kg/injection, schedule: Q04DX002 (ip), vehicle: saline with Tween-80) 103 % of control; (dose: 200.0 mg/kg/injection, schedule: Q04DX002 (ip), vehicle: saline with Tween-80) 97 % of control; (dose: 400.0 mg/kg/injection, schedule: Q04DX002 (ip), vehicle: saline with Tween-80) 100 % of control.
Turning to `CC12C(=O)OC(=O)C1C1C=CC2C1` (stereo not drawn), the T/C is 102 % of control under setting [5]; 98 % of control (dose: 100.0 mg/kg/injection, schedule: Q04DX003 (ip), vehicle: other); 102 % of control under setting [6]; 102 % of control (dose: 200.0 mg/kg/injection, schedule: Q04DX003 (ip), vehicle: other).
With `CCCCCSc1nc(N)nc2nc[nH]c12`, the T/C reads like this: (dose: 50.0 mg/kg/injection, schedule: Q01DX Z (ip), vehicle: methylcellulose (MC)) 117 % of control; (dose: 75.0 mg/kg/injection, schedule: Q01DX001 (ip), vehicle: saline) 106 % of control; (dose: 135.0 mg/kg/injection, schedule: Q01DX009 (ip), vehicle: saline) 98 % of control; (dose: 150.0 mg/kg/injection, schedule: Q01DX001 (ip), vehicle: saline) 109 % of control; under setting [4], 104 % of control; (dose: 200.0 mg/kg/injection, schedule: Q01DX Z (ip), vehicle: methylcellulose (MC)) 104 % of control. The T/C by setting is: (dose: 300.0 mg/kg/injection, schedule: Q01DX001 (ip), vehicle: saline) 101 % of control; (dose: 300.0 mg/kg/injection, schedule: Q01DX009 (ip), vehicle: saline) 119 % of control.
In the case of `C[N+](C)(C)CCCC1C2CCC(C2)C1C#N` (stereo not drawn), the T/C is, setting by setting: (dose: 3.13 mg/kg/injection, schedule: Q01DX009 (ip), vehicle: saline) 101 % of control; (dose: 6.25 mg/kg/injection, schedule: Q01DX009 (ip), vehicle: saline) 97 % of control; (dose: 12.5 mg/kg/injection, schedule: Q01DX009 (ip), vehicle: saline) 98 % of control and 101 % of control; (dose: 12.5 mg/kg/injection, schedule: Q04DX003 (ip), vehicle: saline) 102 % of control; (dose: 25.0 mg/kg/injection, schedule: Q04DX003 (ip), vehicle: saline) 98 % of control; (dose: 50.0 mg/kg/injection, schedule: Q04DX003 (ip), vehicle: saline) 96 % of control.
Take `O=[N+]([O-])/C=C/c1cccc([N+](=O)[O-])c1`: the T/C reads like this: (dose: 25.0 mg/kg/injection, schedule: Q04DX003 (ip), vehicle: Klucel (hydroxypropylcellulose) (HPC)) 103 % of control; (dose: 50.0 mg/kg/injection, schedule: Q04DX003 (ip), vehicle: Klucel (hydroxypropylcellulose) (HPC)) 103 % of control.
Consider `CC(=O)C(CCl)C(C)=O`, for which the T/C reads like this: (dose: 50.0 mg/kg/injection, schedule: Q01DX001 (ip), vehicle: other) 102 % of control; under setting [7], 96 % of control; under setting [8], 96 % of control; under setting [9], 96 % of control.
As to `Nc1cccc2c1C(=O)C=CC2=O`, the T/C was 103 % of control (dose: 0.78 mg/kg/injection, schedule: Q01DX009 (ip), vehicle: saline); 101 % of control (dose: 1.56 mg/kg/injection, schedule: Q01DX009 (ip), vehicle: saline); 95 % of control (dose: 1.56 mg/kg/injection, schedule: Q04DX003 (ip), vehicle: saline); 98 % of control (dose: 3.12 mg/kg/injection, schedule: Q01DX009 (ip), vehicle: saline); 103 % of control (dose: 3.12 mg/kg/injection, schedule: Q04DX003 (ip), vehicle: saline); 104 % of control (dose: 4.6 mg/kg/injection, schedule: Q01DX009 (ip), vehicle: saline).
For `COC(=O)/C=C/c1ccc(Cl)cc1`, the T/C under setting [10] was 98 % of control, the T/C under setting [11] was 96 % of control and the T/C under setting [12] was 96 % of control.
Regarding `CC(C)=CC(=O)c1ccccc1`, the T/C by setting is: (dose: 100.0 mg/kg/injection, schedule: Q01DX001 (ip), vehicle: acetone) 100 % of control; (dose: 200.0 mg/kg/injection, schedule: Q01DX001 (ip), vehicle: acetone) 94 % of control; (dose: 400.0 mg/kg/injection, schedule: Q01DX001 (ip), vehicle: acetone) 103 % of control.
As to `CCCCC(=O)c1cc2ccccc2c2ccccc12`, the T/C reads like this: (dose: 100.0 mg/kg/injection, schedule: Q01DX001 (ip), vehicle: saline) 94 % of control; (dose: 200.0 mg/kg/injection, schedule: Q01DX001 (ip), vehicle: saline) 88 % of control; (dose: 400.0 mg/kg/injection, schedule: Q01DX001 (ip), vehicle: saline) 98 % of control.
For `CCOC(=O)C1(NC(=O)N(CCCl)N=O)CCCCC1`, the T/C runs as follows: (dose: 16.0 mg/kg/injection, schedule: Q01DX001 (ip), vehicle: other) 97 % of control; (dose: 31.0 mg/kg/injection, schedule: Q01DX001 (ip), vehicle: other) 106 % of control; (dose: 125.0 mg/kg/injection, schedule: Q01DX001 (ip), vehicle: other) 188 % of control and 220 % of control; (dose: 250.0 mg/kg/injection, schedule: Q01DX001 (ip), vehicle: other) 296 % of control and 317 % of control; (dose: 375.0 mg/kg/injection, schedule: Q01DX001 (ip), vehicle: other) 216 % of control; (dose: 500.0 mg/kg/injection, schedule: Q01DX001 (ip), vehicle: other) 194 % of control and 322 % of control. The T/C is 331 % of control (dose: 750.0 mg/kg/injection, schedule: Q01DX001 (ip), vehicle: other) and 295 % of control (dose: 1000.0 mg/kg/injection, schedule: Q01DX001 (ip), vehicle: other).
`O=C1OC(=O)C2C(c3ccccc3)C=CC(c3ccccc3)C12` (stereo not drawn): the T/C by setting is: under setting [1], 98 % of control; under setting [2], 108 % of control; (dose: 100.0 mg/kg/injection, schedule: Q04DX003 (ip), vehicle: saline) 92 % of control; under setting [3], 98 % of control; (dose: 200.0 mg/kg/injection, schedule: Q04DX003 (ip), vehicle: saline) 108 % of control.
For `COc1cc(NC(=O)Nc2cccc(C(C)=O)c2)c(OC)cc1Cl`, the T/C runs as follows: under setting [10], 116 % of control; under setting [11], 110 % of control; under setting [12], 110 % of control.
As to `CN(C)CCC1(CCN(C)C)C(=O)CCc2ccccc21`, the T/C runs as follows: under setting [7], 97 % of control; under setting [8], 103 % of control; under setting [9], 103 % of control.

(Values after PubChem BioAssay AID248 (DTP/NCI, 2004).)
